Consider seven compounds from PubChem BioAssay (NCI).

The structures appear in SMILES notation.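 Each compound was tested at five concentrations against cells in 96-well plates for 48 hours. Definition used: TGI = concentration required for complete inhibition of growth.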

Some test systems named below: HCT-15 colon; SNB-75 CNS; RPMI-8226 leukemia; HOP-62 NSCLC; U251 CNS; HCC-2998 colon; T-47D breast; A498 renal; A549 NSCLC; SR leukemia; EKVX NSCLC; NCI-H23 lung; UO-31 renal; TK-10 renal; UACC-62 melanoma; HCT-116 colon; SK-MEL-5 melanoma; SNB-19 CNS; SK-MEL-2 melanoma; PC-3 prostate.
Common to all, as to test: DTP human tumour cell line panel, 48 h

With `COC(=O)c1c(CC(Cc2ccc3c(c2)CCCC3)C(=O)O)ccc2c1CCCC2` (stereo not given), the TGI in the experiment on HCT-15 colon was 33.8 µM; in the experiment on SNB-75 CNS it was greater than 100 µM; in the experiment on RPMI-8226 leukemia, 73.3 µM; in the experiment on HOP-62 NSCLC it was 51.7 µM; in the experiment on U251 CNS, greater than 100 µM; in the experiment on HCC-2998 colon it was 70.2 µM. The TGI is greater than 100 µM in the experiment with T-47D breast; 76.3 µM with A498 renal; greater than 100 µM with A549 NSCLC; 91.6 µM in the experiment on SR leukemia; 68.6 µM with EKVX NSCLC; greater than 100 µM with NCI-H23 lung. Besides, the total growth inhibition concentration (TGI) is 62.3 µM in the experiment with UO-31 renal; greater than 100 µM with TK-10 renal; 52.4 µM in the experiment on UACC-62 melanoma; 33.1 µM in the experiment on HCT-116 colon; greater than 100 µM in the experiment with SK-MEL-5 melanoma; greater than 100 µM with SNB-19 CNS. Further, the TGI in the experiment with SK-MEL-2 melanoma was 39.5 µM; in the experiment on PC-3 prostate it was greater than 100 µM.

For the compound `CCCCc1ccc(-n2sc3ncc(-c4ccccc4)cc3c2=O)cc1`, the TGI with HCT-15 colon, with SNB-75 CNS, with RPMI-8226 leukemia, with HOP-62 NSCLC, in the experiment with U251 CNS and in the experiment on HCC-2998 colon was greater than 100 µM throughout. Further, the TGI in the experiment on T-47D breast was 69.5 µM; in the experiment with A498 renal it was greater than 100 µM; with A549 NSCLC it was greater than 100 µM; in the experiment on SR leukemia, greater than 100 µM; with EKVX NSCLC, greater than 100 µM; in the experiment on NCI-H23 lung it was greater than 100 µM. Also, the TGI in the experiment on UO-31 renal, in the experiment on TK-10 renal, with UACC-62 melanoma, in the experiment with HCT-116 colon, with SK-MEL-5 melanoma and in the experiment with SNB-19 CNS was greater than 100 µM each time. For the same compound, the TGI with SK-MEL-2 melanoma and in the experiment with PC-3 prostate was greater than 100 µM each time.

`O=c1[nH]nc(-c2ccccc2)n1/N=C/c1cccc([N+](=O)[O-])c1`: the TGI in the experiment with HCT-15 colon, with SNB-75 CNS, in the experiment with RPMI-8226 leukemia, with HOP-62 NSCLC, in the experiment with U251 CNS and in the experiment with HCC-2998 colon was greater than 100 µM each time. The TGI with T-47D breast, with A498 renal, with A549 NSCLC, in the experiment on SR leukemia, in the experiment on EKVX NSCLC and in the experiment with NCI-H23 lung was greater than 100 µM in each case. The total growth inhibition concentration (TGI) in the experiment with UO-31 renal, in the experiment with TK-10 renal, with UACC-62 melanoma, in the experiment on HCT-116 colon, in the experiment on SK-MEL-5 melanoma and in the experiment with SNB-19 CNS was greater than 100 µM each time. Further, the TGI with SK-MEL-2 melanoma and with PC-3 prostate was greater than 100 µM in each case.

As to `C[C@H]1C2Cc3cc(O)ccc3[C@@]1(C)CCN2CCc1ccc(N)cc1`, the TGI was 33.3 µM in the experiment on HCT-15 colon; greater than 100 µM in the experiment with SNB-75 CNS; greater than 100 µM in the experiment on RPMI-8226 leukemia; 33.4 µM in the experiment with HOP-62 NSCLC; 33.9 µM in the experiment on U251 CNS; 26.4 µM with HCC-2998 colon. For the same compound, the TGI in the experiment on T-47D breast is greater than 100 µM; in the experiment on A498 renal, greater than 100 µM; in the experiment on A549 NSCLC, greater than 100 µM; in the experiment with SR leukemia it was 72.8 µM; in the experiment with EKVX NSCLC, greater than 100 µM; in the experiment on NCI-H23 lung it was greater than 100 µM. The concentration for total growth inhibition (TGI) with UO-31 renal was greater than 100 µM; in the experiment on TK-10 renal, greater than 100 µM; with UACC-62 melanoma it was greater than 100 µM; with HCT-116 colon, 31.2 µM; with SK-MEL-5 melanoma it was 27.5 µM; with SNB-19 CNS it was greater than 100 µM. Further, the results for the total growth inhibition concentration (TGI) with SK-MEL-2 melanoma and in the experiment with PC-3 prostate were greater than 100 µM and 34.8 µM, respectively.

Take `O=C(c1ccccc1)N1C(=O)N(c2ccccc2)C(=Nc2ccccc2)C1=Nc1ccccc1`: the TGI in the experiment on HCT-15 colon, with SNB-75 CNS, in the experiment with RPMI-8226 leukemia, in the experiment with HOP-62 NSCLC, in the experiment with U251 CNS and in the experiment on HCC-2998 colon was greater than 100 µM throughout. The TGI with T-47D breast, with A498 renal, with A549 NSCLC, in the experiment with SR leukemia, in the experiment on EKVX NSCLC and with NCI-H23 lung was greater than 100 µM each time. Moreover, the TGI is greater than 100 µM in the experiment with UO-31 renal; greater than 100 µM in the experiment with TK-10 renal; 31.8 µM with UACC-62 melanoma; greater than 100 µM in the experiment on HCT-116 colon; greater than 100 µM in the experiment with SK-MEL-5 melanoma; greater than 100 µM in the experiment on SNB-19 CNS. In addition, the TGI in the experiment with SK-MEL-2 melanoma and in the experiment with PC-3 prostate was greater than 100 µM in each case.

As to `N#Cc1c2ccc([N+](=O)[O-])cc2c(=O)n2c1[nH]c1ccc(C(F)(F)F)cc12`, the TGI was greater than 100 µM in the experiment on HCT-15 colon; greater than 100 µM in the experiment on SNB-75 CNS; 13.6 µM with RPMI-8226 leukemia; greater than 100 µM with HOP-62 NSCLC; greater than 100 µM in the experiment on U251 CNS; greater than 100 µM in the experiment with HCC-2998 colon. Moreover, the TGI with T-47D breast was greater than 100 µM; in the experiment with A498 renal, greater than 48.8 µM; with A549 NSCLC, greater than 100 µM; in the experiment on SR leukemia, greater than 25.7 µM; in the experiment on EKVX NSCLC it was greater than 100 µM; with NCI-H23 lung, 65.3 µM. In addition, the TGI is 56.9 µM in the experiment with UO-31 renal; greater than 100 µM with TK-10 renal; greater than 100 µM with UACC-62 melanoma; greater than 41.6 µM in the experiment on HCT-116 colon; greater than 100 µM in the experiment on SK-MEL-5 melanoma; greater than 100 µM with SNB-19 CNS. Moreover, the concentration for total growth inhibition (TGI) in the experiment with SK-MEL-2 melanoma and in the experiment with PC-3 prostate was greater than 100 µM throughout.

On to `Cc1ccc2nc3n[nH]c(N)c3nc2c1`, for which the TGI with HCT-15 colon, with SNB-75 CNS, with RPMI-8226 leukemia, with HOP-62 NSCLC, with U251 CNS and with HCC-2998 colon was greater than 100 µM each time. Further, the TGI in the experiment on T-47D breast, in the experiment with A498 renal, with A549 NSCLC, in the experiment on SR leukemia, in the experiment with EKVX NSCLC and with NCI-H23 lung was greater than 100 µM in each case. In addition, the TGI in the experiment with UO-31 renal, with TK-10 renal, in the experiment with UACC-62 melanoma, in the experiment on HCT-116 colon, in the experiment on SK-MEL-5 melanoma and in the experiment with SNB-19 CNS was greater than 100 µM in each case. Also, the TGI in the experiment with SK-MEL-2 melanoma and with PC-3 prostate was greater than 100 µM in each case.
